Measurements as given in publication PMC9346113, “Therapeutic impact of BET inhibitor BI 894999 treatment: backtranslation from the clinic” (British Journal of Cancer, 2022).
Like-named read-outs stand apart in the source and are kept apart here. One block for each compound: values may come before it.

Legend:
Ty-82 = experiment: Combination viability assay, Bliss analysis (CGI), Ty-82; assay type: cell-based, human; settings: partner in combination with BI 894999 (10–20 nM)
Experimental: (§1) Viability assays were performed on 96-well flat-bottom microtiter plates and incubated with Alamar Blue solution (Invitrogen, Carlsbad, US-CA). The effects of drug combinations were analysed using the Bliss Independence Model.

Ty-82 BRD4-NUT = experiment: Cell proliferation assay (Alamar readout), Ty-82; assay type: cell-based, human; settings: read-out: geomean GI50
Experimental: (§2) The NUT Carcinoma cell line Ty-82 was purchased from JCRB Japan No. 1330 and cultivated in RPMI 1640 supplemented with 10% fetal calf serum (FCS). The NC cell lines 10–15, 14169 and 10326 were in-licensed from Christopher French, Brigham & Womens Hospital, Boston, and were cultivated in DMEM supplemented with glutamax and 10% FCS.
as §1
(§3) Dose response curves (96h cell proliferation assay - Alamar readout) on four NC cell lines with BET inhibitor BI 894999. Yellow bar: readout t zero (before adding of compound). Green bar: DMSO control (max proliferation).
(§4) Dose response curves (96h cell proliferation assay - Alamar readout) on four NC cell lines with multiple BET inhibitors.

10–15 BRD4-NUT = experiment: Cell proliferation assay (Alamar readout), 10–15; assay type: cell-based, human; settings: 96h, read-out: geomean GI50
Experimental: as §2, §1, §3, §4

14169 BRD4-NUT = experiment: Cell proliferation assay (Alamar readout), 14169; assay type: cell-based, human; settings: 96h, read-out: geomean GI50
Experimental: as §2, §1, §3, §4

10326 BRD3-NUT = experiment: Cell proliferation assay (Alamar readout), 10326; assay type: cell-based, human; settings: 96h, read-out: geomean GI50
Experimental: as §2, §1, §3, §4

BRD4-NUT = system: T1, BRD4-NUT; experiment: Immunofluorescence staining of NUT megadomains, Ty-82; assay type: cell-based, human; settings: Ty-82; 30 min treatment
T1 construct: endogenous in cells; host or cells: Ty-82 NUT carcinoma cells
Experimental: Cells were seeded on four-well chamber slides (Merck Millipore, #PEZGS0416). After treatment, cells were fixed with 4% PFA (16% Solution, Thermo Fischer #28908 Paraformaldehyde, diluted 1:4 in PBS), permeabilised with 0,1% TX-100 (Sigma #93443, diluted in PBS). After blocking in blocking buffer (10% normal goat serum, Sigma #G9023–10ml, diluted in blocking solution: 2% BSA/PBS, Sigma #A7284–50ml, diluted 1:15 in PBS), the first antibody mAB rabbit anti-NUT 1:1000 (clone C52B1, Cell Signaling #3625) in blocking buffer was added, followed by incubation with the 2nd antibody goat anti-rabbit Alexa*488 1:1000 (Thermo Fisher, #A-11008) in blocking buffer in the dark. Cells were mounted with ProLong Gold Antifade Mountant with DAPI (Thermo Fisher, #P36931) and analysed using a Laser scanning microscope (LSM700). […]
Immunofluorescence staining of NUT megadomains on NC Ty-82 treated with BI with BI 894999 30nM for 1 h, then changed to 10 nM or 5 nM or 2.5 nM or control for 24 h.

[1] = system: Ty-82 xenograft (BRD4-NUT); experiment: Ty-82 NC xenograft model; assay type: in vivo, mice
Description: (§5) Mice were group-housed (8–10 mice per cage) under pathogen-free and controlled environmental conditions (21 ± 1.5 C temperature, 55 ± 10% humidity) in an AAALAC accredited facility and handled according to the institutional, governmental and European Union guidelines (Austrian Animal Protection Laws, GV-SOLAS and FELASA guidelines). Animal studies were approved by the internal ethics committee and the local government committee. Mice were 6- to 8-week-old female CIEA NOG purchased from Taconic, Denmark (NOD.Cg-Prkdc^scid Il2rg^tm1Sug/JicTac). 5 × 10^6 NC tumour cells were injected subcutaneously into the right flank of the mice (1 site per mouse). Mice were randomly distributed between the treatment and the vehicle control when tumours were well established and had reached volumes of 100–150 mm^3. Compounds were suspended in 0.5% Natrosol and administered once daily intra-gastral by gavage needle. Tumour diameters were measured three times a week with a calliper. […] Within each subtopic the p-values of the efficacy parameters were adjusted for multiple comparisons according to Bonferroni–Holm. The p-values of the tolerability parameter remained unadjusted in order not to overlook a possible adverse effect. The level of significance was fixed at α = 5%. An adjusted p-value of less than 0.05 was considered to show a statistically significant difference between the groups. The statistical evaluation was prepared using the software Graph Pad Prism.

[2] = system: 10–15 xenograft (BRD4-NUT); experiment: 10–15 NC xenograft model; assay type: in vivo, mice
Description: as §5

[3] = system: 10326 xenograft (BRD3-NUT); experiment: 10326 NC xenograft model; assay type: in vivo
Description: as §5

[4] = PK analysis in mouse plasma; assay type: in vivo; settings: CIEA NOG (NOD.Cg-Prkdc^scid Il2rg^tm1Sug/JicTac), oral, mice, 5 mg/kg CCS1477, exposure defined as sufficient for a synergistic effect, read-out: plasma concentration at 6 h after compound application
Description: PK analysis in mouse plasma. Oral treatment at the indicated doses. Sampling at the indicated timepoints.

BRD3-NUT = system: T2, BRD3-NUT; experiment: IHC of 10326 xenograft tumours, NUT protein; assay type: in vivo, mice; settings: day 21, CCS1477 at either dose (5 or 10 mg/kg)
T2 construct: endogenous in cells; host or cells: 10326 NUT carcinoma cells, in culture (A11) and as subcutaneous xenograft tumours in NOG mice (A26)
Experimental: Immunohistochemistry was performed on formalin-fixed, paraffin-embedded tumour tissue using antibodies against human Ki67(Cell Signaling #9027, 1:400 dilution), anti-human mitochondria (Abcam ab92824, 1:1000 dilution) and against endogenous NUT protein (Cell Signaling #3625, 1:50 dilution) used to detect NUT fusion proteins. Digital images of whole tissue sections were acquired using a Leica SCN400 histology scanner (Leica Microsystems). Ki67-positive index was evaluated using Halo Software V. 3.2 (Indica lab). Regions of interest (ROIs) within the tissue sections were first identified using Halo Software via machine learning technology across pathological samples and tissue control, within these ROIs, nuclei were detected and classified as positive or negative based on IHC staining thresholds.
BRD3-NUT 10326 tumor sections after treatment with 2 mg/kg BI 894999, 5 mg/kg or 10 mg/kg CCS1477 and the combination of both. IHC staining for NUT protein.

10–15 xenografts = system: 10–15 xenografts; parameters: method as in PMID 32371576; settings: mice bearing 10–15 xenografts; tumour regression not described; cited from earlier work
[5] = mice; 1 mg/kg romidepsin; BI 894999 at clinically relevant doses; data not shown

SMILES: CNC(=O)Nc1ccc2c(c1)CC[C@@]21OC(=O)N(CC(=O)N(Cc2ccc(F)cc2)[C@@H](C)C(F)(F)F)C1=O [A485]
cell growth inhibition >100% reached at clinically achievable concentrations (Ty-82): not

concentration at 6 h [4]: 0.2 to 0.3 µM
SMILES: CO[C@H]1CC[C@H](n2c([C@@H]3CCCC(=O)N3c3ccc(F)c(F)c3)nc3cc(-c4c(C)noc4C)ccc32)CC1 [CCS1477]
GI50 (Ty-82 BRD4-NUT; Homo sapiens, TY82, 96h): 0.0385 µM
GI50 (10–15 BRD4-NUT; Homo sapiens): 0.0329 µM
GI50 (14169 BRD4-NUT; Homo sapiens): 0.0629 µM
GI50 (10326 BRD3-NUT; Homo sapiens): 0.0227 µM
concentration at which BRD4-NUT detaches from chromatin / is re-distributed (BRD4-NUT): > 1000 nM
cell growth inhibition >100% reached at clinically achievable concentrations (Ty-82): accomplished
TGI (tumour growth inhibition) ([1]; 5 mg/kg CCS1477 p.o. daily): 29%
TGI (tumour growth inhibition) ([1]; 10 mg/kg CCS1477 p.o. daily): 11%
TGI ([2]; 5 mg/kg CCS1477): 24%
TGI ([2]; 10 mg/kg CCS1477): 30%
TGI ([3]; 5 mg/kg CCS1477): 65%
TGI ([3]; 10 mg/kg CCS1477): 88%
loss of speckled megadomain localisation (NUT staining) (BRD3-NUT): not seen

SMILES: CNC(=O)N1CCc2c(c(N3CCCc4cc(-c5cnn(C)c5)c(C(F)F)cc43)nn2C2CCOCC2)C1 [GNE-781]
cell growth inhibition >100% reached at clinically achievable concentrations (Ty-82): accomplished

SMILES: CCNC(=O)C[C@@H]1N=C(c2ccc(Cl)cc2)c2cc(OC)ccc2-n2c(C)nnc21 [GSK525762]
GI50 (Ty-82 BRD4-NUT; Homo sapiens, TY82, 96h): 0.154 µM
GI50 (10–15 BRD4-NUT; Homo sapiens): 0.113 µM
GI50 (14169 BRD4-NUT; Homo sapiens): 0.055 µM
GI50 (10326 BRD3-NUT; Homo sapiens): 0.0436 µM

SMILES: Cc1sc2c(c1C)C(c1ccc(Cl)cc1)=N[C@@H](CC(=O)OC(C)(C)C)c1nnc(C)n1-2 [JQ1]
GI50 (Ty-82 BRD4-NUT; 96h): 0.11 µM
GI50 (10–15 BRD4-NUT): 0.0844 µM
GI50 (14169 BRD4-NUT): 0.0492 µM
GI50 (10326 BRD3-NUT): 0.0432 µM

SMILES: Cc1cc(-c2ccc3nc(C4CCOCC4)n(CCOC(F)(F)F)c3c2)cn(C)c1=O [NEO2734]
GI50 (Ty-82 BRD4-NUT; 96h): 0.0265 µM
GI50 (10–15 BRD4-NUT): 0.0226 µM
GI50 (14169 BRD4-NUT): 0.0204 µM
GI50 (10326 BRD3-NUT): 0.0112 µM
concentration at which BRD4-NUT detaches from chromatin / is re-distributed (BRD4-NUT): > 100 nM
efficacy compared to BETi alone (10–15 xenografts): greater growth inhibition and significantly improved survival

SMILES: Cc1[nH]c2ccccc2c1CCNCc1ccc(/C=C/C(=O)NO)cc1 [Panobinostat]
cell growth inhibition >100% reached at clinically achievable concentrations (Ty-82): accomplished

SMILES: C/C=C1\NC(=O)[C@H]2CSSCC/C=C/[C@H](CC(=O)N[C@H](C(C)C)C(=O)N2)OC(=O)[C@H](C(C)C)NC1=O [Romidepsin]
cell growth inhibition >100% reached at clinically achievable concentrations (Ty-82): accomplished
benefit when added to BI 894999 [5]: did not show benefit
